# According to US6303596A, “Use of taurolidine for treatment of leukemias” (priority 2000, dated 2001):
# How the values were obtained:
# [1] = test system: HL-60; assay: TUNEL / propidium iodide flow cytometry, HL-60; type: cell-based, human; conditions: for % TUNEL-positive: HL-60, taurolidine 100 μg/ml or anisomycin 1 μg/ml for 4 h, assayed at 6 hours, mean ± SD
# Experimental: In the second method, DNA fragmentation was detected via TUNEL assay according to the manufacturer's instructions. With this methodology, 2×10^6 cells were fixed with 2% paraformaldehyde, permeabilized with 0.1% Triton X-100/0.1% citrate, incubated at 37° C. with terminal deoxynucleotidyl transferase and FITC-dUTP, rinsed and analyzed by flow cytometry. Enhanced FITC signal indicates apoptosis-specific DNA fragmentation. Gavriali, et al, "Identification of programmed cell death in situ via specific labeling of nuclear DNA fragmentation," J Cell Biol 119:493 (1992). Parallel aliquots of unfixed cells were treated with PI and FITC-conjugated anti-CD14 and analyzed by flow cytometry, in order to identify cells with permeable cell membranes (since PI binds to DNA but is excluded from cells with intact plasma membranes) and also to determine the cell-specificity of the apoptotic signal.
# Consequently, TUNEL analysis was performed on PBMC at 3, 6, or 24 hours after treatment with 25 to 100 μg/ml taurolidine. Aliquots of harvested cells were also labeled with FITC-conjugated anti-CD14 antibodies and PI, which allowed identification of monocytes (CD14-positive cells) and cells with damaged cell membranes (PI-positive cells). […] Thus, nearly 75% of the monocytes were TUNEL-positive following treatment with 100 μg/ml taurolidine for six hours. Confirmation that the TUNEL-positive cells were monocytes was obtained by staining with FITC-conjugated anti-CD14.
# In another study, TUNEL assays were performed on all cell lines 6 hours after cells were initially exposed to taurolidine (cells were treated for 4 hours, rinsed, and then incubated for 2 more hours before TUNEL assay was performed).
# . Taurolidine and anisomycin induced apoptosis in MM6, HL-60, and Jurkat cells (Table VIII). MM6 and HL-60 cells were similarly effected, with >80% TUNEL-positive cells after 6 hours. Jurkat cells were less sensitive, with approximately 50% of cells induced to undergo apoptosis after taurolidine treatment. After 6 hours, 73% of anisomycin-treated REH cells were apoptotic, with less than 20% of taurolidine-treated REH cells being TUNEL-positive. However, assay of cells 24 hours after
# ^a Analysis by flow cytometry after staining cells with propidium
# iodide and processing for TUNEL.
# Data are percent of total cell-size events, and are expressed as mean ±
# Cells were treated for 4 hours with taurolidine (100 μg/ml) or
# anisomycin (1 μg/ml), and then assayed at 6 hours.
# [2] = test system: REH; assay: growth rate after taurolidine treatment, REH; type: cell-based; conditions: Homo sapiens, 72 h, growth over three days, read-out: growth rate (% of control)
# Experimental: (§1) FIGS. 8A and 8B depict cell viability and growth rates for REH cell line following taurolidine treatment, in terms of % trypan blue negative cells and % cell number, respectively. Cells were treated with various concentrations of taurolidine for 4 hours in AIM-V+0.01% BCS. After aliquots were collected for LDH assay, the remainder of the culture was rinsed in HBSS and resuspended in RPMI+10% BCS without taurolidine. Counts of trypan blue-negative cells (FIG. 8A), and total cell number (FIG. 8B), were recorded daily thereafter (with the measurement at Day 1 being made immediately after the 4 hour taurolidine treatment). […] Doubling times were determined under each condition, and expressed as a percentage of the rate of doubling of untreated cells. […]
# (§2) In these experiments, integrity of cell membranes following taurolidine treatment was assessed by exclusion of trypan blue and by measuring the release of LDH in MM6, K-562, HL-60, and REH cells. […] A parallel aliquot of cells was lysed by three cycles of freeze/thaw and the quantity of LDH released was taken to be 100%. […]
# HL-60 cells treated with 50 μl taurolidine. In these samples, LDH present in the culture medium was 8.3±2.3% of that released by completely lysed cells, compared with 2.3±0.8% measured in control cultures. […]
# ^b Growth rate was measured over three days following treatment.
# [3] = test system: MM6 cells; assay: trypan blue exclusion, MM6; type: cell-based, human
# Experimental: FIG. 4A and FIG. 4B are graphs depicting cell viability and growth rates following taurolidine treatment as determined by assay procedures. MM6 cells were treated with taurolidine as described in FIG. 3. After aliquots were collected for the lactate dehydrogenase (LDH) assay, the remainder of the culture was rinsed in Hank's balanced salt solution (HBSS) and resuspended in RPMI+10% BCS without taurolidine. Counts of trypan blue-negative cells represented in FIG. 4A and total cell number represented in FIG. 4B were recorded daily thereafter (with the measurement at Day 1 being made immediately after the four hour taurolidine treatment). Conditions were no treatment (open squares); 50 μg/ml taurolidine (closed squares); 25 μg/ml taurolidine (open circles); and vehicle alone (closed circles). Cells were subcultured when they reached a concentration of 6×10^5 cells/ml. Data are mean±SEM of three experiments.
# as §1, with “5A” for “8A”, “5B” for “8B”, “MM6” for “REH”, “5A),” for “8A),”, “5B),” for “8B),”
# as §2
smiles,measurement,setting,value
"O=S1(=O)CCN(CN2CCS(=O)(=O)NC2)CN1 [taurolidine, 4,4'-methylenebis(perhydro-1,2,4-thiadiazin 1,1-dioxide)]",% TUNEL-Negative Cells,"[1]; HL-60, 50 μg/ml, 3 hours",35%
same,% TUNEL-positive,[1],91.9 ± 10.9%
same,% TUNEL-positive,[1]; listed as Taurolidine,> 80%
same,cytotoxicity at 50 µg/mL,"[1]; Homo sapiens, HL-60, 3 h, read-out: % Propidium Iodide Positive Cells",5%
same,activity at 50 µg/mL,[2]; 50 μg/ml for 4 h,1%
same,activity at 100 µg/mL,[2]; 100 μg/ml for 4 h,18%
same,cytotoxicity at 50 µg/mL,"[3]; Homo sapiens, MM6, 50 μg/ml taurolidine for 4 h, untreated and vehicle 5%, read-out: trypan blue-positive cells on the day following treatment (Day 2)",65%
same,trypan blue staining after treatment,"[3]; MM6, 25 μg/ml taurolidine",did not show an increase in trypan blue staining
same,trypan blue exclusion immediately after treatment (Day 1),"[3]; MM6, taurolidine-treated 4 h, versus control",equally able to exclude trypan blue
